Values joined by “and” are separate entries in the source; they are usually repeats but may differ in a detail not shown here. Equal entries are not always repeated.
What was measured:
[1] = biological target: T1, Peregrin (Homo sapiens) (UniProt P55201); conditions: Compound concentration 20.0 uM, Protein concentration 2.0 uM, Result type QC Liability
T1 sequence (whole entry): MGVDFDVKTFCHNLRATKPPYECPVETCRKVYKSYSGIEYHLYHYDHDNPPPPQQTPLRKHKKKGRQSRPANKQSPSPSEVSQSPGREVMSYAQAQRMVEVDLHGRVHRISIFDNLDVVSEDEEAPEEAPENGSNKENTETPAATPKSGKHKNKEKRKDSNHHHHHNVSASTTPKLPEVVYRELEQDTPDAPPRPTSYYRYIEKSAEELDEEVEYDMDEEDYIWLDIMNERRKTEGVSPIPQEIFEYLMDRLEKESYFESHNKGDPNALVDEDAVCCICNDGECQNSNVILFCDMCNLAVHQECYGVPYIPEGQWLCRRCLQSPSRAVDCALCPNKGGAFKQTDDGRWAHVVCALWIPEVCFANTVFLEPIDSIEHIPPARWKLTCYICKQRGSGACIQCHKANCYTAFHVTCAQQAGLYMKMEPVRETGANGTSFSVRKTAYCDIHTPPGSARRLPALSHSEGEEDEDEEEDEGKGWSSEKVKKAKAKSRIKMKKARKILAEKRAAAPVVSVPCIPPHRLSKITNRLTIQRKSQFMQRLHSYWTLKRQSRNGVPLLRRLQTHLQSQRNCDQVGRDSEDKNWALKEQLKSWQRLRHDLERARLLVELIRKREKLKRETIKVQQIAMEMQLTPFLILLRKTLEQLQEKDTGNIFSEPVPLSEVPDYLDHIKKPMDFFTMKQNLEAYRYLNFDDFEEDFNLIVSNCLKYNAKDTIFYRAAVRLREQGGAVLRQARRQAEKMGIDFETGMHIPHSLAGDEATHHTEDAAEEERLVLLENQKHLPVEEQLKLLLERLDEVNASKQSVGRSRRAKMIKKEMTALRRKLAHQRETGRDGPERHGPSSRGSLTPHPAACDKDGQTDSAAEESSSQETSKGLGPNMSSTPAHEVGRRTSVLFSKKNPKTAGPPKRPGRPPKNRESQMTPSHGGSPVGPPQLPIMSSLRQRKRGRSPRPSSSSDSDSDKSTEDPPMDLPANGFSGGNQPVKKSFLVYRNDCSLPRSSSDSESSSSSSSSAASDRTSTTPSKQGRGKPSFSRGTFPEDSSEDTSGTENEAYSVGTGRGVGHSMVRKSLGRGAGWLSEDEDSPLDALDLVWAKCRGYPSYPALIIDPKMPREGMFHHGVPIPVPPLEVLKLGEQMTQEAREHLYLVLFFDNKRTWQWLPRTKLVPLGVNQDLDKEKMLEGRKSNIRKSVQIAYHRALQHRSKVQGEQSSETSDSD

[2] = biological target: Fibroblast growth factor receptor 3 (Homo sapiens) (UniProt P22607); conditions: Compound concentration 20.0 uM, Protein concentration 2.0 uM, Result type QC Liability
Sequence of Fibroblast growth factor receptor 3 (Homo sapiens) (P22607 23-806 limits assumed): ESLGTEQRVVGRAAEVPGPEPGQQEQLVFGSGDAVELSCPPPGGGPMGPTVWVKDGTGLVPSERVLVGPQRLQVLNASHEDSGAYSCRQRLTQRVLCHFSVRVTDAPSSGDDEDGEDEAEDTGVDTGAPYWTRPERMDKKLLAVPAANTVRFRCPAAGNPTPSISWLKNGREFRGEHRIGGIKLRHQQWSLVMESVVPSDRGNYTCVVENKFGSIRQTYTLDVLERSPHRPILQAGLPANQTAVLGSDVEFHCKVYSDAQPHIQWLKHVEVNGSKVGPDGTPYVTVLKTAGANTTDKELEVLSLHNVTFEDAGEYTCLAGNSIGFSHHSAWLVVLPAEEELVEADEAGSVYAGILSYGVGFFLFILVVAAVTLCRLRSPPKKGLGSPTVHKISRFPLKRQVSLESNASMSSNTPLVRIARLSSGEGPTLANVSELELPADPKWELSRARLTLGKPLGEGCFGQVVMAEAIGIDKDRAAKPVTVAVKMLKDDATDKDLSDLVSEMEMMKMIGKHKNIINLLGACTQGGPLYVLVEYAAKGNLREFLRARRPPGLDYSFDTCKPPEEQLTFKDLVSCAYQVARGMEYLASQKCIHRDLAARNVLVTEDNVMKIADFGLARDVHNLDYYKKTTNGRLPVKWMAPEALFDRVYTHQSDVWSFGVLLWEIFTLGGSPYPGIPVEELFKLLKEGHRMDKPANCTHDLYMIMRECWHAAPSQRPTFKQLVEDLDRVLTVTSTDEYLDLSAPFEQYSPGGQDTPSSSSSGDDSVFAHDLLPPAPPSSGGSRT
Description: Thermal Shift Assay. Domain: start/stop: P449-E759

O=c1cc(C2CCNCC2)n2nc3cccc(Cl)c3c2[nH]1
ΔTm [1]: -1.18 °C
ΔTm [2]: 0.45 °C

CCc1nc(-c2cccc(C)c2)c(-c2ccncc2)s1
ΔTm [1]: -0.75 °C
ΔTm [2]: 0.65 °C

COc1cc(Nc2cnc(C#N)c(O[C@H](C)CN(C)C)n2)ncc1-c1cnn(C)c1
ΔTm [1]: -0.27 °C
ΔTm [2]: 1.26 °C

COc1cc2c(NC3CCN(C(C)C)CC3)nc(C3CCCCC3)nc2cc1OCCCN1CCCC1
ΔTm [1]: -0.55 °C
ΔTm [2]: 0.95 °C

Cc1c(NC(=O)c2ccc(C(C)(C)C)cc2)cccc1-c1cn(C)c(=O)c(Nc2ccc(C(=O)N3CCOCC3)cc2)n1
ΔTm [1]: -4.33 °C
ΔTm [2]: 0.54 °C

CC(=O)c1c(C)c2cnc(Nc3ccc(N4CCN(CCOCCOCCOCCNC(=O)COc5cccc6c5C(=O)N(C5CCC(=O)NC5=O)C6=O)CC4)cn3)nc2n(C2CCCC2)c1=O (stereo unspecified)
ΔTm [1]: -1.99 °C
ΔTm [2]: 0.48 °C

CC(C)(C)c1cnc(CSc2cnc(NC(=O)C3CCNCC3)s2)o1
ΔTm [1]: -1.47 °C
ΔTm [2]: 0.5 °C

O=C(CNC(=O)c1ccc(-c2ccccc2)cc1)NC1CCCc2ccccc21 (stereo unspecified)
ΔTm [1]: -4.59 °C
ΔTm [2]: 0.59 °C

CCc1c(-c2ccc3[nH]ncc3c2)cnc(N)c1-c1ccc(O)cc1
ΔTm [1]: -1.61 °C
ΔTm [2]: 2.78 °C

CN[C@@H](C)C(=O)N[C@H]1CN(C(=O)CC(C)C)CC[C@H]2CC[C@@H](C(=O)NC(c3ccccc3)c3ccccc3)N2C1=O
ΔTm [1]: -1.53 °C
ΔTm [2]: 0.83 °C

CN[C@@H](C)C(=O)N[C@H](C(=O)N1CCC[C@H]1c1nc(C(=O)c2ccc(F)cc2)cs1)C1CCCCC1
ΔTm [1]: -1.91 °C
ΔTm [2]: 0.96 °C

CCOC(=O)CS(=O)(=O)c1ccc([C@@H](CO)NC(=O)c2cc3c(Cl)c(Cl)c(C)cc3n2C)cc1
ΔTm [1]: -8.76 °C
ΔTm [2]: 2.82 °C

COc1cc(C)c(S(=O)(=O)N(C)CCOCC(=O)N(C)[C@H]2CCC[C@@H](N3CCN(C)CC3)C2)c(C)c1
ΔTm [1]: -2.36 °C
ΔTm [2]: 0.64 °C

Cc1nc2cccnc2n2c(-c3cc(C(C)(C)O)ncc3Cl)nnc12
ΔTm [1]: -3.02 °C
ΔTm [2]: 1.25 °C

CCc1nc(C2CCC2)n2nc(-c3ccccc3)[nH]c(=O)c12
ΔTm [1]: -2.47 °C
ΔTm [2]: 0.69 °C

CN(C(=O)CCOCCOCCOCCOCCNc1cccc2c1C(=O)N(C1CCC(=O)NC1=O)C2=O)[C@H]1CC[C@@]2(C)[C@@H](CC[C@@H]3[C@@H]2CC[C@]2(C)[C@@H](c4ccc5ccncc5c4)CC[C@@H]32)C1 (stereo partly specified)
ΔTm [1]: 3.76 °C
ΔTm [2]: 1.42 °C

CNc1nc(Nc2ccc(C(=O)N3CCOCC3)cc2OC)ncc1Cl
ΔTm [1]: -1.86 °C
ΔTm [2]: 0.95 °C

CC(=O)O[C@H]1C(=O)[C@@]2(C)[C@H]([C@H](OC(=O)c3ccccc3)[C@]3(O)C[C@H](OC(=O)[C@H](O)[C@@H](NC(=O)c4ccccc4)c4ccccc4)C(C)=C1C3(C)C)[C@]1(OC(C)=O)CO[C@@H]1C[C@@H]2O
ΔTm [1]: -2.68 °C
ΔTm [2]: 0.44 °C

Fc1cccc(-n2cnc3c(NCc4nc5c(F)c(F)ccc5[nH]4)nc(N4CCOCC4)nc32)c1
ΔTm [1]: -0.08 °C
ΔTm [2]: -0.16 °C

CS(=O)(=O)c1ccc(-c2cnc(N)c(C(=O)Nc3ccccc3)n2)cc1
ΔTm [1]: -1.36 °C
ΔTm [2]: 1.51 °C

COC(=O)c1sccc1S(=O)(=O)Nc1ccc(Nc2ccccc2)cc1OC
ΔTm [1]: -1.04 °C
ΔTm [2]: 0.39 °C

C[C@H](NC(=O)c1cc(Cl)ccc1Oc1ccc(F)cc1)c1ccc(C(=O)O)cc1
ΔTm [1]: -3.01 °C
ΔTm [2]: 0.47 °C

CN(C)C/C=C/C(=O)Nc1cc2c(Nc3ccc(F)c(Cl)c3)ncnc2cc1OC[C@@H]1CCCO1
ΔTm [1]: -0.41 °C
ΔTm [2]: 1.49 °C

CN(C)C(=O)c1sc2nc(N3CCC(S(C)(=O)=O)CC3)cc(C(F)(F)F)c2c1N
ΔTm [1]: -2.57 °C and -1.49 °C
ΔTm [2]: 0.65 °C and 1.05 °C

Cn1c(C(=O)N[C@@H](CO)c2ccc(C(=O)O)cc2)cc2cc(Cl)ccc21
ΔTm [1]: -2.2 °C
ΔTm [2]: 0.81 °C

CCN1C(=O)N(c2c(F)c(OC)cc(OC)c2F)Cc2cnc3[nH]c(CN4CCOCC4)cc3c21
ΔTm [1]: -0.68 °C
ΔTm [2]: 11.8 °C

COc1ccc(CSc2nnc(-c3ccc4ncsc4c3)o2)cc1C(F)(F)F
ΔTm [1]: -1.83 °C
ΔTm [2]: -7.8 °C

CCCCCCCN(CCc1ccc(SC(C)(C)C(=O)O)cc1)C(=O)Nc1ccc(F)cc1F
ΔTm [1]: -1.59 °C
ΔTm [2]: 0.87 °C

COc1cc(Cl)c(C(=O)N[C@@H](CN[C@H]2CC[C@@H](N)CC2)Cc2ccc(C#N)cc2)cc1-c1ccc(CN[C@H](C)c2ccc(C)cc2)o1
ΔTm [1]: -2.44 °C
ΔTm [2]: 1.14 °C

Cc1c(CN2CCC3(CC2)CN(c2ncnc4sc(CC(F)(F)F)cc24)C3)ccc2c1cc(C#N)n2CC(N)=O
ΔTm [1]: -1.41 °C
ΔTm [2]: 0.67 °C

CCOC(=O)Nc1ccc2c(c1)N(C(=O)CN(CC)CC)c1ccccc1CC2
ΔTm [1]: -1.21 °C
ΔTm [2]: 0.66 °C

Fc1ccc(-c2c3cccc(C(F)(F)F)c3nn2Cc2ccc(F)cc2Cl)cc1
ΔTm [1]: -2.25 °C
ΔTm [2]: 0.67 °C

COC(=O)Nc1nc2c(s1)-c1c(c(-c3cccnc3)nn1-c1ccc(C3(N(C)C)CC3)cc1)CC2
ΔTm [1]: -1.72 °C
ΔTm [2]: 1.4 °C

Cc1cc2nc(N3CCC(C(=O)NC4CCCC4)CC3)n(C(C)C)c2cc1C
ΔTm [1]: -3.41 °C
ΔTm [2]: 0.35 °C

Cc1cc(C2CCCNC2)ccc1Nc1ncc(Br)c(NCc2cccc3c2C(C)(C)C(=O)N3)n1 (stereo unspecified)
ΔTm [1]: -1.21 °C
ΔTm [2]: 2.52 °C

C=CC(=O)N1CCC[C@@H](n2nc(-c3ccc(Oc4ccccc4)cc3)c3c(N)ncnc32)C1
ΔTm [1]: -1.17 °C
ΔTm [2]: -1.1 °C

CCc1ncnc(N2CCN(C(C)=O)CC2)c1C#Cc1ccc(N)nc1
ΔTm [1]: -1.29 °C
ΔTm [2]: 0.7 °C

CN1CCN(C(=O)Cc2ccc(N/C(=C3\C(=O)Nc4cc(Cl)ccc43)c3ccccc3)cc2)CC1
ΔTm [1]: -2.46 °C
ΔTm [2]: 5.68 °C

Clc1ccccc1C(c1ccccc1)(c1ccccc1)n1ccnc1
ΔTm [1]: -5.05 °C
ΔTm [2]: 0.47 °C

N=C(N)NCCC[C@H](NC(=O)C(c1ccccc1)c1ccccc1)C(=O)NCc1ccc(CNC(N)=O)cc1
ΔTm [1]: -1.9 °C
ΔTm [2]: 0.81 °C

C[C@@H](COCCC(=O)N1CCN(c2ncc(C(F)(F)F)cn2)CC1)Nc1cn[nH]c(=O)c1C(F)(F)F
ΔTm [1]: -0.15 °C
ΔTm [2]: 0.48 °C

Cn1cc(Nc2nccc(N3CC4CCC(C3)N4C(=O)[C@@H]3CC3(F)F)n2)cn1
ΔTm [1]: -0.71 °C
ΔTm [2]: 2.58 °C

COc1ccc(OC(=O)N(CC(=O)O)Cc2ccc(OCCc3nc(-c4ccccc4)oc3C)cc2)cc1
ΔTm [1]: -1.99 °C
ΔTm [2]: 0.89 °C

CNC(=O)c1cccc(-c2ccc3c(N4CCOC[C@@H]4C)nc(N4CCOC[C@@H]4C)nc3n2)c1
ΔTm [1]: -1.11 °C
ΔTm [2]: 0.5 °C

CN1CCC(F)(Cn2cnc(-c3ccc(F)cn3)c2-c2ccnc3[nH]ccc23)CC1
ΔTm [1]: -0.88 °C
ΔTm [2]: 0.5 °C

CC(=O)Nc1cccc(-n2c(=O)n(C3CC3)c(=O)c3c(Nc4ccc(I)cc4F)n(C)c(=O)c(C)c32)c1
ΔTm [1]: -0.16 °C
ΔTm [2]: 0.38 °C

Cc1nn(-c2nc3ccc(Cl)c(Cl)c3[nH]2)c(O)c1C1OC(=O)c2ccccc21 (stereo unspecified)
ΔTm [1]: -3.79 °C
ΔTm [2]: 0.7 °C

CCN1CCN(Cc2ccc(Nc3ncc(F)c(-c4cc(F)c5nc(C)n(C(C)C)c5c4)n3)nc2)CC1
ΔTm [1]: -1.26 °C
ΔTm [2]: 3.23 °C

CNc1[nH]c(Nc2ccc(C(=O)N3CCOCC3)cc2OC)nc2ncc(Cl)c1-2
ΔTm [1]: -1.81 °C
ΔTm [2]: 0.62 °C

Cc1cc2c(-c3ccco3)cnc(N[C@@H]3CCN(C)C[C@H]3C(=O)NC3CCCCC3)c2[nH]c1=O
ΔTm [1]: -0.68 °C
ΔTm [2]: 0.65 °C

O=C(O)Cc1ccc(CCNS(=O)(=O)c2ccc(Cl)cc2)cc1
ΔTm [1]: -2.91 °C
ΔTm [2]: 0.43 °C

O=C1CCCc2[nH]c(-c3ccnc(NCC4CC4)c3)c(Nc3ccccc3)c21
ΔTm [1]: -3.57 °C
ΔTm [2]: 0.77 °C

Cc1cn([C@H](C)CC#N)c(=O)c2cc(Cn3nc(C(F)F)cc3Cl)nn12
ΔTm [1]: -1.09 °C
ΔTm [2]: 0.78 °C
